Tests used:
[1] = molecular target: T1, SF9 affinity purified rat FPT (Rattus norvegicus, UniProt Q02293+Q04631); assay: PFT (FPT) inhibitory activity assay, radiolabeled farnesyl pyrophosphate and biotinyl peptide, streptavidin beads; format: biochemical; conditions: HEPES buffer pH 7.4, 30° C., 30 minutes; read-out: FTase IC50
T1 construct: made in house; host or cells: Sf9 insect cells
Procedure, shortened: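 Rat FPT expressed in SF9 cells was incubated 30 minutes at 30° C. with compound (in 10% DMSO), radiolabeled farnesyl pyrophosphate and biotinylated peptide. Buffer: HEPES pH 7.4, ZnCl2 20 μM, MgCl2 and DTT 5 mM each, 0.1% PEG 8000, 5 mM potassium phosphate (also run without phosphate). Product captured on streptavidin beads in magnesium acetate/H3PO4 stop buffer.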

[2] = tested on: human lung carcinoma with K-ras mutation and p53 deletion; conditions: nude mice; cited from earlier work
[3] = tested on: EJ-1 human bladder carcinoma; conditions: 100 mg/kg, xenograft in nude mice; cited from earlier work
[4] = tested on: HT1080 human fibrosarcoma; conditions: 100 mg/kg, xenograft in nude mice; cited from earlier work
[5] = tested on: human colon carcinoma xenografts; conditions: 100 mg/kg, xenograft in nude mice; cited from earlier work
[6] = tested on: mammary and salivary carcinomas; conditions: daily administration, ras transgenic mice; cited from earlier work

IC50 [1] | Compound | also measured
35 nM | Nc1nccn1CC(Oc1ccc2c(c1CCc1ccccc1)CCCC2=O)c1ccccc1 (stereo not shown) [Compound 63r, 6-[2-(2-Amino-imidazol-1-yl)-1-phenyl-ethoxy]-5-phenethyl-3,4-dihydro-2H-naphthalen-1-one] | melting point: 185 to 188 °C
– | CSCC[C@H](NC(=O)c1ccc(NC[C@@H](N)CS)cc1-c1ccccc1)C(=O)O [FTI276] | block of tumor growth [2]: selectively block tumor growth
– | COC(=O)[C@H](CCSC)NC(=O)[C@H](/C=C\[C@@H](/C=C/[C@@H](N)CS)C(C)C)Cc1ccccc1 [Compound B1086] | inhibition of tumor growth [3]: inhibit tumor growth; inhibition of tumor growth [4]: inhibit tumor growth; inhibition of tumor growth [5]: inhibit tumor growth
– | CC[C@H](C)[C@@H](CO[C@@H](Cc1ccccc1)C(=O)N[C@@H](CCS(C)(=O)=O)C(=O)OC(C)C)NC[C@@H](N)CS [L-744,832] | tumor regression [6]: tumor regression
0.2 nM | CC[C@H](CO)NC(=O)c1ccc(SCc2c(O[C@H](Cn3ccnc3)c3ccccc3)ccc3c2CCCC3=O)cc1 [Compound 245, N-[(1R)-1-(Hydroxymethyl)propyl]-4-{[(2-{[(1S)-2-(1H-imidazol-1-yl)-1-phenylethyl]oxy}-5-oxo-5,6,7,8-tetrahydro-1-naphthalenyl)methyl]sulfanyl}benzamide] | –
19 nM | O=C1CCCc2c1ccc(O[C@H](Cn1ccnc1)c1ccccc1)c2CN1CCN(c2ccccn2)CC1 [Compound 147, 6-((S)-2-Imidazol-1-yl-1-phenyl-ethoxy)-5-(4-pyridin-2-yl-piperazin-1-ylmethyl)-3,4-dihydro-2H-napthalen-1-one] | –
8 nM | CCCc1c(OC(Cn2ccnc2)c2ccccc2)ccc2c1CCCC2=O (stereo not shown) [Compound 50, 6-(2-Imidazolyl-1-phenylethoxy)-5-propyl-2,3,4-trihydro-naphthalen-1-one] | –
0.7 nM | CC(O)CNC(=O)c1ccc(S(=O)(=O)Cc2c(O[C@H](Cn3ccnc3)c3ccccc3)ccc3c2CCCC3=O)cc1 (stereo partly drawn) [Compound 253, N-(2-Hydroxypropyl)-4-{[(2-{[(1S)-2-(1H-imidazol-1-yl)-1-phenylethyl]oxy}-5-oxo-5,6,7,8-tetrahydro-1-naphthalenyl)methyl]sulfonyl}benzamide] | –
3.1 nM | O=C1CCCc2c1ccc(O[C@H](Cn1ccnc1)c1ccccc1)c2CCCc1ccccc1 [Compound 44b, 6-((S)-2-Imidazol-1-yl-1-phenyl-ethoxy)-5-(3-phenyl-propyl)-3,4-dihydro-2H-naphthalen-1-one] | –
10 nM | O=C1CCCc2c1ccc(O[C@H](Cn1ccnc1)c1ccccc1)c2COc1ccc2ncccc2c1 [Compound 107, 6-((1S)-2-Imidazolyl-1-phenylethoxy)-5-(6-quinolyloxymethyl)-2,3,4-trihydronaphthalen-1-one] | –

From patent US6943183B2 (Pfizer Inc, priority 2000, dated 2005)
